According to ChEMBL document CHEMBL1921674, “Novel tricyclic inhibitors of IKK2: discovery and SAR leading to the identification of 2-methoxy-N-((6-(1-methyl-4-(methylamino)-1,6-dihydroimidazo[4,5-d]pyrrolo[2,3-b]pyridin-7-yl)pyridin-2-yl)methyl)acetamide (BMS-066)” (Bioorg Med Chem Lett, 2011):
Calls of active or inactive are those of the source. The rule behind the calls is not given here.

Legend:
Ephrin type-B receptor 1 = Ephrin type-B receptor 1 (Homo sapiens, UniProt P54762); assay: Inhibition of EphB1
hERG (KCNH2) = hERG (KCNH2) (Homo sapiens, UniProt Q12809); assay: Inhibition of human ERG at 30 uM by patch clamp assay
Blood [1] = assay: Antiinflammatory activity in rat whole blood assessed as inhibition of LPS-induced TNFalpha release treated for 45 mins before LPS challenge measured after 6 hrs by ELISA; type: functional, tissue-based
[2] = biological target: Inhibitor of nuclear factor kappa-B kinase subunit alpha (Homo sapiens) (UniProt O15111); assay: Inhibition of IKK1 at 10 uM
[3] = Protein binding in rat serum; type: ADME, cell-free; settings: read-out: PB (converted)
[4] = Protein binding in mouse serum; type: ADME, cell-free; settings: read-out: PB (converted)
Mus musculus [5] = assay: Reduction in TNBS-induced colitis in mouse […] model assessed as decrease in tissue damage at 10 mg/kg administered intrarectally 1 day before TNBS challenge twice daily for 4 days by hematoxylin-eosin staining relative to control; type: functional, organism-based; parameters: dose 10 mg/kg
[6] = biological target: Ephrin type-B receptor 1 (Homo sapiens) (UniProt P54762); assay: Inhibition of EphB1 at 10 uM
[7] = Cmax in Lewis rat at 10 mg/kg, po; type: ADME, organism-based; parameters: dose 10 mg/kg, route oral; settings: in vivo
[8] = AUC in Sprague-Dawley rat plasma at 2 mg/kg, iv after 8 hrs; type: ADME, organism-based; parameters: time < 8 hr, dose 2 mg/kg, route intravenous
Mus musculus [9] = assay: Reduction in TNBS-induced colitis in intrarectally dosed mouse […] model assessed as decrease of body weight loss administered 1 day before TNBS challenge twice daily for 4 days; type: functional, organism-based
[10] = biological target: T1, Proto-oncogene tyrosine-protein kinase receptor Ret (Homo sapiens, UniProt P07949); assay: Inhibition of RET
Cytochrome P450 2C9 = Cytochrome P450 2C9 (Homo sapiens, UniProt P11712); assay: Inhibition of CYP2C9; type: ADME
[11] = AUC in SJL mouse intestine at 8 mg/kg, iv after 8 hrs; type: ADME, organism-based; parameters: time < 8 hr, dose 8 mg/kg, route intravenous
[12] = Oral bioavailability in Lewis rat at 10 mg/kg; type: ADME, organism-based; settings: in vivo
[13] = AUC in SJL mouse liver at 8 mg/kg, iv after 8 hrs; type: ADME, organism-based; parameters: time < 8 hr, dose 8 mg/kg, route intravenous
[14] = Oral bioavailability in mouse at 3 mg/kg; type: ADME, organism-based; settings: in vivo
Mus musculus [15] = assay: Reduction in TNBS-induced colitis in mouse […] model assessed as decrease of colon length at 3 mg/kg, administered intrarectally 1 day before TNBS challenge twice daily for 4 days; type: functional
[16] = Half life in dog at 1 mg/kg, iv; type: ADME, organism-based, Canis lupus familiaris; parameters: dose 1 mg/kg, route intravenous; settings: in vivo
[17] = biological target: T2, Vascular endothelial growth factor receptor 3 (Homo sapiens, UniProt P35916); assay: Inhibition of FLT4
[18] = biological target: Inhibitor of nuclear factor kappa-B kinase subunit beta (Homo sapiens) (UniProt O14920); assay: Inhibition of human IKK2 at 10 uM
[19] = Lipophilicity, log P of the compound by HPLC analysis; type: physicochemical
[20] = Cmax in dog at 5 mg/kg, po; type: ADME, organism-based, Canis lupus familiaris; parameters: dose 5 mg/kg, route oral; settings: in vivo
Ephrin type-A receptor 1 = Ephrin type-A receptor 1 (Homo sapiens, UniProt P21709); assay: Inhibition of EPHA1
[21] = Cmax in mouse at 3 mg/kg, po; type: ADME, organism-based; parameters: dose 3 mg/kg, route oral; settings: in vivo
[22] = biological target: T3, Vascular endothelial growth factor receptor 2 (Homo sapiens, UniProt P35968); settings: 10 uM
Description: Inhibition of KDR at 10 uM

[23] = Volume of distribution at steady state in Lewis rat at 2 mg/kg, iv; type: ADME, organism-based; parameters: dose 2 mg/kg, route intravenous; settings: in vivo, read-out: Vdss
[24] = biological target: T3, Vascular endothelial growth factor receptor 2; assay: Inhibition of KDR
[25] = biological target: T4, Inhibitor of nuclear factor kappa-B kinase subunit beta (Homo sapiens, UniProt O14920); assay: Inhibition of human IKK2-mediated GST-IkappaBalpha protein fusion phosphorylation
T4 sequence (O14920 whole entry): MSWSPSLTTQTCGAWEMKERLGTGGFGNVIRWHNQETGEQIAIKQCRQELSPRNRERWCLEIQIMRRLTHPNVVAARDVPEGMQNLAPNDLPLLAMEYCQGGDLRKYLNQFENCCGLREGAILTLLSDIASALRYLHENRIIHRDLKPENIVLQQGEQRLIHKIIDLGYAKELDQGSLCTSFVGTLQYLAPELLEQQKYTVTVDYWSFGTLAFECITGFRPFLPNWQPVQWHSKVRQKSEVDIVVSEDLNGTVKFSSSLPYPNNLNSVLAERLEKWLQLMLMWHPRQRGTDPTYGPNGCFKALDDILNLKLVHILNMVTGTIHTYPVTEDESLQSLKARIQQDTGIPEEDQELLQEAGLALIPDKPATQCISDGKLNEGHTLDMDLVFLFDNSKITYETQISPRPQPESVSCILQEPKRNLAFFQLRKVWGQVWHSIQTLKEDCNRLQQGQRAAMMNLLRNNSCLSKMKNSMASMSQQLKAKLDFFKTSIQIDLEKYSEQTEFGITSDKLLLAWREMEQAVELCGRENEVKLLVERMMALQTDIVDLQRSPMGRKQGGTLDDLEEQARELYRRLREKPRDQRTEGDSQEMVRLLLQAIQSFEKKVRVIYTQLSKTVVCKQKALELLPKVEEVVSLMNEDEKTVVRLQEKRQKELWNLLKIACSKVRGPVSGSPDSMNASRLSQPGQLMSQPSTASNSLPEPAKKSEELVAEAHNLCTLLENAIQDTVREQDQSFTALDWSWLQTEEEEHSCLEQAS

[26] = biological target: T1, Proto-oncogene tyrosine-protein kinase receptor Ret; assay: Inhibition of RET at 10 uM
PBMC = assay: Antiinflammatory activity in human PBMC assessed as inhibition of LPS-induced TNFalpha release treated for 5 mins before LPS challenge measured after 4 hrs by ELISA; type: functional, cell-based; settings: Homo sapiens, PBMC
Mus musculus [27] = assay: Reduction in TNBS-induced colitis in mouse […] model assessed as decrease of colon length at 10 mg/kg, administered intrarectally 1 day before TNBS challenge twice daily for 4 days; type: functional, organism-based; parameters: dose 10 mg/kg
Cytochrome P450 2C19 = Cytochrome P450 2C19 (Homo sapiens, UniProt P33261); assay: Inhibition of CYP2C19; type: ADME
[28] = Clearance in Lewis rat at 2 mg/kg, iv; type: ADME, organism-based; parameters: dose 2 mg/kg, route intravenous; settings: in vivo
Blood [29] = assay: Antiinflammatory activity in mouse whole blood assessed as inhibition of LPS-induced TNFalpha release treated for 45 mins before LPS challenge measured after 6 hrs by ELISA; type: functional, tissue-based
[30] = AUC in Sprague-Dawley rat intestine at 2 mg/kg, iv after 8 hrs; type: ADME, organism-based; parameters: time < 8 hr, dose 2 mg/kg, route intravenous
[31] = Half life in Lewis rat at 2 mg/kg, iv; type: ADME, organism-based; parameters: dose 2 mg/kg, route intravenous; settings: in vivo
[32] = Clearance in mouse at 2 mg/kg, iv; type: ADME, organism-based; parameters: dose 2 mg/kg, route intravenous; settings: in vivo
[33] = biological target: Ephrin type-A receptor 1 (Homo sapiens) (UniProt P21709); assay: Inhibition of EPHA1 at 10 uM
[34] = Clearance in dog at 1 mg/kg, iv; type: ADME, organism-based, Canis lupus familiaris; parameters: dose 1 mg/kg, route intravenous; settings: in vivo
[35] = biological target: Inhibitor of nuclear factor kappa-B kinase subunit alpha (Homo sapiens, UniProt O15111); assay: Inhibition of IKK1
[36] = biological target: Protein-tyrosine kinase 6 (Homo sapiens, UniProt Q13882); assay: Inhibition of BRK
[37] = AUC in Lewis rat at 10 mg/kg, po; type: ADME, organism-based; parameters: dose 10 mg/kg, route oral; settings: plasma
[38] = biological target: T2, Vascular endothelial growth factor receptor 3; assay: Inhibition of FLT4 at 10 uM

T3 sequence (P35968 whole entry): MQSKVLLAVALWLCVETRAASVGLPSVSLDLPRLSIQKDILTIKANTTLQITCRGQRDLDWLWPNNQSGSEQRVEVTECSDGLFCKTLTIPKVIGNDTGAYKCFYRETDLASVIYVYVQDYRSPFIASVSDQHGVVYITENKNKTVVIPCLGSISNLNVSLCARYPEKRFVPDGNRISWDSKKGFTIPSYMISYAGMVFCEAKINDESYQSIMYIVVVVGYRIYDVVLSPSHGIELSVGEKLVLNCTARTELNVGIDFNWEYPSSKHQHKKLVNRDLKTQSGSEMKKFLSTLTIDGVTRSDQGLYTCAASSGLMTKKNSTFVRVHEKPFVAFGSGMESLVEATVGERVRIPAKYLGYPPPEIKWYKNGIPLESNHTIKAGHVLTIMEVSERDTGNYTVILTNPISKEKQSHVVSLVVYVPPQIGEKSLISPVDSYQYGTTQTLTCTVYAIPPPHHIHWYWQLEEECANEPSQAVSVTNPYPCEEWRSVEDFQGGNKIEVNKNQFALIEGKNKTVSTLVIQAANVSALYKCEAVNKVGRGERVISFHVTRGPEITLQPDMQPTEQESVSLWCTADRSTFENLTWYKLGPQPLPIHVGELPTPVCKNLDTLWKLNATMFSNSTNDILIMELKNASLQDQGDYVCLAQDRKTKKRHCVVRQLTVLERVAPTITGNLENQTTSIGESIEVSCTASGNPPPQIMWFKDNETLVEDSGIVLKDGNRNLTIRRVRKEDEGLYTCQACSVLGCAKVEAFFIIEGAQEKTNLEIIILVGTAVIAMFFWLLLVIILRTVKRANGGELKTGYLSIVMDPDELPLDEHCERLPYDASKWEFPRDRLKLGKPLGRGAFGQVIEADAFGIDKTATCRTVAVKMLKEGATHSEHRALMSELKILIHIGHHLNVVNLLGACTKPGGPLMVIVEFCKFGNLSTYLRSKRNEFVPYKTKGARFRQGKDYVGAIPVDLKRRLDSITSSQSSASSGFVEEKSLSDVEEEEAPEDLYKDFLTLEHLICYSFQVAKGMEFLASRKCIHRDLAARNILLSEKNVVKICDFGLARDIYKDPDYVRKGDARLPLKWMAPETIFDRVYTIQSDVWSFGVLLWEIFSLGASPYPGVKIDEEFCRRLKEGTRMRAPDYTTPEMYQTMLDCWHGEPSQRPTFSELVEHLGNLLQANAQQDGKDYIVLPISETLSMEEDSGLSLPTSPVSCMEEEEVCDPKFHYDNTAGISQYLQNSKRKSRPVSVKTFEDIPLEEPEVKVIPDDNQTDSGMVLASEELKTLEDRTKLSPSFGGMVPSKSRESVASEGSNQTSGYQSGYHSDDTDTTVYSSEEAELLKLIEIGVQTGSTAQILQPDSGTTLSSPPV
T2 sequence (P35916 whole entry): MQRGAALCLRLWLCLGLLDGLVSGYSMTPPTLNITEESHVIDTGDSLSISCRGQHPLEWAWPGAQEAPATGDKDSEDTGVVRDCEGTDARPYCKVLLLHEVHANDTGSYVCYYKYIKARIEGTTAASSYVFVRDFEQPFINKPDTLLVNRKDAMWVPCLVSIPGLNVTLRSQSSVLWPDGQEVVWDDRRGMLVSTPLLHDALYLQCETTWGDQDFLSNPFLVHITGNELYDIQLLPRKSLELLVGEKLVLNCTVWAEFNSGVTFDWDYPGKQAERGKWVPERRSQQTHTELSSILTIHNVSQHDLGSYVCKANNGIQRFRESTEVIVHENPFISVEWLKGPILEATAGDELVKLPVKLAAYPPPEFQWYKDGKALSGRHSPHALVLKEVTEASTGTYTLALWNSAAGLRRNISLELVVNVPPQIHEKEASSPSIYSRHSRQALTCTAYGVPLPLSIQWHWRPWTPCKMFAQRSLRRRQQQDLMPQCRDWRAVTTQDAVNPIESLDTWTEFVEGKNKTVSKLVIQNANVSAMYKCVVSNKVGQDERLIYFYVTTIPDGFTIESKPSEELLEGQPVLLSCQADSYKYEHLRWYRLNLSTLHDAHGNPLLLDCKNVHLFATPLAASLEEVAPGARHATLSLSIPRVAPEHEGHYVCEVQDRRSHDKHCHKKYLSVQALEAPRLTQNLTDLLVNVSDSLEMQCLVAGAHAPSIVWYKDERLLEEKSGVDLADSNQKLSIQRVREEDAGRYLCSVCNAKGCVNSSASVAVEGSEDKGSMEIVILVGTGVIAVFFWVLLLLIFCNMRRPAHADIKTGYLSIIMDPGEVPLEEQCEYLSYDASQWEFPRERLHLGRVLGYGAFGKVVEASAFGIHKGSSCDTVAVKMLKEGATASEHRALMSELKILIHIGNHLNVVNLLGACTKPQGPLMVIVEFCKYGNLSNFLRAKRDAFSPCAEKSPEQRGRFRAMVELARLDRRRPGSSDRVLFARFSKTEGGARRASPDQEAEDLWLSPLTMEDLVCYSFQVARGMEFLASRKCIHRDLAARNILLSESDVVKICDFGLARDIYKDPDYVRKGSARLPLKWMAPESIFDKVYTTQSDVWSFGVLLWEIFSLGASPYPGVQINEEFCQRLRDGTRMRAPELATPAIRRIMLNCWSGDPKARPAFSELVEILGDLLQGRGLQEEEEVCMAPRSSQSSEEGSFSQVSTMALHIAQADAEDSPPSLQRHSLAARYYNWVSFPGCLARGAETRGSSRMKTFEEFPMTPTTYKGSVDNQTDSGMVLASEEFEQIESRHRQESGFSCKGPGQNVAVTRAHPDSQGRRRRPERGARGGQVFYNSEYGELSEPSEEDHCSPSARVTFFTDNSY
T1 sequence (P07949 whole entry): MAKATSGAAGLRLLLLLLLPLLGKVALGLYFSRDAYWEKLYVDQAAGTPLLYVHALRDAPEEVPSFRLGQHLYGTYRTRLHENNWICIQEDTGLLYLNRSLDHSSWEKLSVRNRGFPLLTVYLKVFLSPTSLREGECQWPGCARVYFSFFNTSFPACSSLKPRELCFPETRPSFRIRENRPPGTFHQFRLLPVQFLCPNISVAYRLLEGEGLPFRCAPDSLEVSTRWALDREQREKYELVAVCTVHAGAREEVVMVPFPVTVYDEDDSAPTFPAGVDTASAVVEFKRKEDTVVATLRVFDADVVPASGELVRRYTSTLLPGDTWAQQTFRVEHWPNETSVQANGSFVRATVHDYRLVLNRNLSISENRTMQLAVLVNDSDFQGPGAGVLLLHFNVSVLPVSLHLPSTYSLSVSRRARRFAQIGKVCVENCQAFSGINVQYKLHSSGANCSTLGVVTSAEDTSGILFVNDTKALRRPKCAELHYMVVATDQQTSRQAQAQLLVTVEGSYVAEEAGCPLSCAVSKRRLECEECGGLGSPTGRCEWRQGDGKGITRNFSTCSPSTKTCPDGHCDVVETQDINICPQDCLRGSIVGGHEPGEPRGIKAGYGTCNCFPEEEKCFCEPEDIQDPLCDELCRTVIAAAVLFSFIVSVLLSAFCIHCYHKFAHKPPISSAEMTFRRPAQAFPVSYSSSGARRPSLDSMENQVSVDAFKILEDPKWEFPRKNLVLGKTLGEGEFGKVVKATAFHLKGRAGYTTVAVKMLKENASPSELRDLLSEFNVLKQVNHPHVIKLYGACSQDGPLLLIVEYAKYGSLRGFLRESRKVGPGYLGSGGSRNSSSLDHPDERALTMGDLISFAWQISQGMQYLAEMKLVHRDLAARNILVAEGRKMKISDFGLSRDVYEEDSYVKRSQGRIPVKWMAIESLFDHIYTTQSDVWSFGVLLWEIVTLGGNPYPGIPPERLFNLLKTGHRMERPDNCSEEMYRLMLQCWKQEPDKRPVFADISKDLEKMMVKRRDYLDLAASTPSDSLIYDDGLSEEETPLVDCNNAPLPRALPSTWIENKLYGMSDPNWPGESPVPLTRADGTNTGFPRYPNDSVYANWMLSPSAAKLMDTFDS
Chain of Ephrin type-B receptor 1 (Homo sapiens) (P54762 whole entry): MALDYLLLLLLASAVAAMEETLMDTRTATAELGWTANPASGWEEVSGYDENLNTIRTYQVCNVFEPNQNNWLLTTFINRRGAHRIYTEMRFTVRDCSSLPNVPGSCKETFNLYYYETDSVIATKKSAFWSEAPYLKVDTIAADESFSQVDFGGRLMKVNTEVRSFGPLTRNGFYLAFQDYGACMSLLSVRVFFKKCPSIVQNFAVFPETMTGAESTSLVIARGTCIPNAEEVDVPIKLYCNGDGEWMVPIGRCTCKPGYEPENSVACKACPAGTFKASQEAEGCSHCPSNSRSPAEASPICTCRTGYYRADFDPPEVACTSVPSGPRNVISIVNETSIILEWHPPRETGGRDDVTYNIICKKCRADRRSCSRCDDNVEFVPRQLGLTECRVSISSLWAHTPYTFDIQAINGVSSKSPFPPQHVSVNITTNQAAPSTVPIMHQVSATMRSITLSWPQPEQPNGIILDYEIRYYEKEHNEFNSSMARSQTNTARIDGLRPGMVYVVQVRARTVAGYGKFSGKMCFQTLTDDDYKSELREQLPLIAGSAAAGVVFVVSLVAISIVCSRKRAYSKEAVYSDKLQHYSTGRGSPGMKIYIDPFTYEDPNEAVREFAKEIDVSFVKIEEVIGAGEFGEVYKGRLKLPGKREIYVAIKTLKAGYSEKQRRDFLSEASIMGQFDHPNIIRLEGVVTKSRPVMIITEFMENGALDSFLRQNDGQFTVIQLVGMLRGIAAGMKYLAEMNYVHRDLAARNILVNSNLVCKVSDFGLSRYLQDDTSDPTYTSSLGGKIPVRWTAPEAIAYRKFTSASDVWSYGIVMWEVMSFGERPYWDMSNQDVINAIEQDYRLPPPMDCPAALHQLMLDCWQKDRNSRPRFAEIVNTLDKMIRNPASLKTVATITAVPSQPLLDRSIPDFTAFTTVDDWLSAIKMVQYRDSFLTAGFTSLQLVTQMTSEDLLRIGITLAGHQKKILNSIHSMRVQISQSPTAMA
Chain of Ephrin type-B receptor 1 (P54762 whole entry): as above

With CNc1nc2[nH]c(-c3cccc(CNC(=O)COC)n3)cc2c2c1ncn2C the IC50 (Ephrin type-B receptor 1) was 1110 nM, the inhibition at 30 µM (hERG (KCNH2)) was 18% and the IC50 (Blood [1]) was 1700 nM. The inhibition [2] was > 75%, the fraction unbound [3] was 0.069 and the fraction unbound [4] was 0.084. The Activity (Mus musculus [5]) was “Active”, the inhibition [6] was > 75% and the Cmax [7] was 17.6 µM. For the same molecule, the AUC at 8 h [8] was 13 µM·h, the Activity (Mus musculus [9]) was “Dose-dependent effect” and the IC50 [10] was 614 nM. It also gave an IC50 (Cytochrome P450 2C9) of 25000 nM, an AUC at 8 h [11] of 1170 µM·h and a bioavailability [12] of 90%. It also gave an AUC at 8 h [13] of 81 µM·h, a bioavailability [14] of 79% and an Activity (Mus musculus [15]) of 1 cm. The half-life [16] was 3.3 h, the IC50 [17] was 360 nM and the inhibition [18] was > 75%. The logP [19] was 2, the Cmax [20] was 10.3 µM and the IC50 (Ephrin type-A receptor 1) was 686 nM. The Cmax [21] was 1.6 µM, the inhibition [22] was > 75% and the Vd [23] was 0.5 L/kg. For the same molecule, the IC50 [24] was 1490 nM, the IC50 [25] was 9 nM and the inhibition [26] was > 75%. For the same molecule, the IC50 (PBMC) was 150 nM, the Activity (Mus musculus [27]) was “Active” and the IC50 (Cytochrome P450 2C19) was > 40000 nM. It also gave a clearance [28] of 4.5 mL/min/kg, an IC50 (Blood [29]) of 1200 nM and an AUC at 8 h [30] of 156 µM·h. The half-life [31] was 3.7 h, the clearance [32] was 52 mL/min/kg and the inhibition [33] was > 75%. The clearance [34] was 3.1 mL/min/kg, the IC50 [35] was 4960 nM and the IC50 [36] was 310 nM. The AUC [37] was 89 µM·h and the inhibition [38] was > 75%.
